Values quoted from earlier work, collected in patent publication US8318954B2, “Cleavable carnitine compound” (Nou Life Sciences, Inc., priority 2006, dated 2012).
“Also recorded” adds a separate entry of the source. Read-outs that look alike come from different tables or passages of the source.

Legend:
[1] = tested on: subcutaneous adipocytes in rats; settings: long-term administration, rat; cited from earlier work
diabetic rats [2] = settings: diabetic rat, 30 days after sciatic nerve cutting; diet: 200 mg/kg acetyl L-carnitine, 200 mg/kg carnitine mixture, 50 mg/kg α-lipoic acid daily; cited from earlier work
diabetic rats [3] = settings: streptozocin diabetic rats, sciatic nerve; amount administered not specified; cited from earlier work
[4] = tested on: rats with unilateral sciatic nerve division; settings: 50 mg/kg/day i.p. for 6 weeks; compared to no treatment; cited from earlier work
Wobbler mice = settings: twenty days oral, acetyl L-carnitine 200 mg/kg, carnitine mixture 200 mg/kg, α-lipoic acid 50 mg/kg; cited from earlier work
chinchilla laniger = settings: cited from earlier work
mice and rats = settings: cited from earlier work
[5] = tested on: patients having diabetic neuropathy; settings: cited from earlier work
[6] = tested on: rats with unilateral sciatic nerve division; settings: cited from earlier work
[7] = three weeks after noise exposure

Compound: CC(=O)O[C@H](CC(=O)[O-])C[N+](C)(C)C [Acetyl-L-carnitine]
- size of subcutaneous adipocytes in aging skin [1]: blocks progressive increase in size
- Density of tibial nerve degenerate elements (diabetic rats [2]): 0.16 ± 0.02 per 100 nm^2
- Number of tibial nerve degenerate elements (diabetic rats [2]): 560 ± 61
- NMCV (diabetic rats [3]): 34.5 ± 2.1 m/sec
- immunostaining for Schwann cells, percentage area [4]: 86 % increase
- immunostaining for Schwann cells, total area [4]: 111 % increase
- immunostaining for nerve fibres, percentage area [4]: 229 % increase
- immunostaining for nerve fibres, total area [4]: 264 % increase
- regeneration into the distal stump, percentage area [4]: 3,034 % increase
- regeneration into the distal stump, total area [4]: 2,242 % increase
- % increase in running time (Wobbler mice): 35 ± 3.2%
- outer hair cell loss (chinchilla laniger; 4- to 10-kHz region): < 10%
- inner and outer hair cell loss (chinchilla laniger; in vivo): reduced
- threshold shift at 2 to 4 kHz (chinchilla laniger; [7]): no threshold shift
- threshold shifts at 6 to 8 kHz (chinchilla laniger; [7]): < 10 dB
- dose that can be parenterally administered (mice and rats; parenteral, mice and rats): up to 250 mg/kg
- tolerability on prolonged administration (mice and rats; via the diet, 30 consecutive days, 200 mg/kg acetyl L-carnitine together with 100 mg/kg alpha lipoic acid): well tolerated
- tolerability ([5]; 1000 mg/day i.m. 10 days, then 2000 mg/day oral 355 days, 12 month period): well tolerated
- nerve conduction velocity NCV ([5]; at 6- and 12 months, compared to placebo): statistically significant improvement
- Amplitude ([5]; at 12 months, patients with impaired electrophysiological parameters at baseline, compared to placebo): statistically significant improvement
- pain (visual analogue scale) ([5]; compared to placebo): significant reduction; also recorded: statistically significant improvement
- number of TUNEL-positive neurons ([6]; 2 weeks after axotomy, high-dose 50 mg/kg/day parenteral, 50 mg/kg/day): 3 /group
- number of TUNEL-positive neurons ([6]; 2 weeks after axotomy, high-dose 50 mg/kg/day parenteral, listed as ALCAR, 50 mg/kg/day): significantly reduced
- neuron loss ([6]; 2 weeks after axotomy, high-dose 50 mg/kg/day, 50 mg/kg/day): 2%
- neuron loss ([6]; 2 weeks after axotomy, high-dose 50 mg/kg/day, listed as ALCAR, 50 mg/kg/day): significantly reduced
- number of TUNEL-positive neurons ([6]; 2 weeks after axotomy, low-dose 10 mg/kg/day parenteral): 6 /group
- neuron loss ([6]; 2 weeks after axotomy, low-dose 10 mg/kg/day): 0%
- neuron loss ([6]; two months after axotomy, high-dose 50 mg/kg/day): −4%
